Source: US20170266164A1, “NEW METHODS AND USES” (Vicore Pharma AB, priority 2014, published 2017)
“Also recorded” adds a separate entry of the source.

How the values were obtained:
[1] = system: Berk-SS mice; experiment: Urine concentrating ability (urine osmolality), glomerulopathy and survival in drug-treated sickle mice; format: in vivo
From the text: The Berk-AA mice are still relatively outbred and cannot be transplanted into BI/6 or Berk-SS mice without significant graft versus host disease. Knock-in SS (B6; 129-Hba^tm1(HBA)Tow Hbb^tm2(HBG1,HBB*)Tow/Hbb^tm3(HBG1,HBB)Tow/J) mice were kindly provided by Dr. Timothy Townes (University of Alabama, Birmingham). AT1R^−/− mice (B6.129P2Agtr1a^tm1Unc/J) were purchased from Jackson laboratories (Bar Harbor, Me.). AT2R^−/− mice were kindly provided by Dr. Tadashi Inagami (Vanderbilt University School of Medicine, Nashville, Tenn.). […]
Twenty-four hour urine was collected using metabolic cages. Urine volume was measured and then protein stabilization buffer (0.4 mM ophenanthroline, 1 mM p-hydroxymercuribenzoic acid and 0.12 mM pepstatin A and 0.5M EDTA, pH 8.0) was added to a portion of urine to stabilize Ang-11. […] Urine albumin level was measured using the mouse albumin ELISA kit (Bethyl Laboratories, Montgomery, Tex., catalog# E90-134). […] Urine osmolality was measured by vapor pressure osmometer, Vapro 5600, (Wescor Biomedical Systems, South Logan, Utah). Urine creatinine was measured using the creatinine parameter assay kit (R&D Systems, Minneapolis, Minn., catalog# KGE005). Plasma creatinine was measured using the creatinine assay kit (Abcam, Cambridge, Mass., catalog# ab65340) following the manufacturer's instructions. […]

[2] = target: T1, AT2 receptor (Rattus norvegicus, UniProt P35351); settings: rat heart; regulation of TIMP1/MMP9 and TGF β1; cited from earlier work
T1 construct: Stimulation of the AT2 receptor with C21 (as defined herein) ameliorates LV fibrosis; host or cells: rat heart (in vivo, endogenous receptor)
T1 sequence (P35351 1-363): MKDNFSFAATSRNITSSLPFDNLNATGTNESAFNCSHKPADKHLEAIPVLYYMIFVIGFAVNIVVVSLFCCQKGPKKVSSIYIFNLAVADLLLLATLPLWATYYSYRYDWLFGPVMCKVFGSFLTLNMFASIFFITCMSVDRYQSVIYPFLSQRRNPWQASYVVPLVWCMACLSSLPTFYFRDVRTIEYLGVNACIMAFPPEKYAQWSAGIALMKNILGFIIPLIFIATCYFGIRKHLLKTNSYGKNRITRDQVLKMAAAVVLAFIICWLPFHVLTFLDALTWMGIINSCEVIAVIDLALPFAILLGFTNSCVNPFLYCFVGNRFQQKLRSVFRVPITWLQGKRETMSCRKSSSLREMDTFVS

[3] = system: Berk-SS/WT chimeric mice; experiment: Urine albumin, urine osmolality and glomerular disease in drug-treated sickle hematopoietic chimeras; format: in vivo, mouse; settings: for albuminuria: Berk-SS/WT chimeric mice vs untreated chimeras; for glomerular disease: hematopoietic SCD chimeras; for UCA (urine osmolality): sickle chimeric mice, after 8 hour water deprivation
From the text: The Berk-AA mice are still relatively outbred and cannot be transplanted into BI/6 or Berk-SS mice without significant graft versus host disease. Knock-in SS (B6; 129-Hba^tm1(HBA)Tow Hbb^tm2(HBG1,HBB*)Tow/Hbb^tm3(HBG1,HBB)Tow/J) mice were kindly provided by Dr. Timothy Townes (University of Alabama, Birmingham). AT1R^-/- mice ([…]1Unc/J) were purchased from Jackson laboratories (Bar Harbor, Me.). AT2R^-/- mice were kindly provided by Dr. […] (Vanderbilt University School of Medicine, Nashville, Tenn.). Bone marrow from donor Berkeley sickle mice (or 057BI/6 control mice) were distributed 1:5 among the 057BI/6, AT1R^-/- and AT2R^-/- lethally irradiated (1175 cGy) recipient mice. All animals were maintained in the Cincinnati Children's Research Foundation's vivarium using protocols approved by the Institutional Animal Care and Use Committee. Twenty-four hour urine was collected using metabolic cages. Urine volume was measured and then protein stabilization buffer (0.4 mM ophenanthroline, 1 mM p-hydroxymercuribenzoic acid and 0.12 mM pepstatin A and 0.5M EDTA, pH 8.0) was added to a portion of urine to stabilize Ang-11. The rest of the urine was used for other analyses, including GFR, albumin, osmolality. Temporal assessments of urine albumin, creatinine and osmolality were made after an 8 hour water deprivation in SCD chimeric mice. […] Therefore, in Berk-SS mice (untransplanted/“straight SCD” native sickle mice) no water deprivation was performed prior to urine collection. Urine albumin level was measured using the mouse albumin ELISA kit (Bethyl Laboratories, Montgomery, Tex., catalog# E90-134). The ELISA was performed in a 96-well clear micro-plate (R&D systems, Minneapolis, Minn., catalog # DY990) as per manufacturer's instructions. Urine osmolality was measured by vapor pressure osmometer, Vapro 5600, (Wescor Biomedical Systems, South Logan, Utah). Urine creatinine was measured using the creatinine parameter assay kit (R&D Systems, Minneapolis, Minn., catalog# KGE005). Plasma creatinine was measured using the creatinine assay kit (Abcam, Cambridge, Mass., catalog# ab65340) following the manufacturer's instructions. Mice were given the following drug treatments: a) Captopril (West-Ward Pharmaceutical, West Eatontown, N.J., NDC number #0143-1173-01) 0.15 mg/ml in drinking water. b) Losartan (Teva Pharmaceuticals USA Inc, North Wales, Pa., -NDC number#00937366-98) 0.3-0.6 mg/ml in drinking water. c) C21 (Vicore Pharma AB, […], Sweden; Batch/Lot number # A11202910) 10 mg/kg/day in drinking water. Losartan and captopril water bottles were changed twice a week with fresh drugs and C21 was changed daily. In order to determine the role of the angiotensin receptors in SN, the inventors generated hematopoietic chimeric animals through bone marrow (BM) transplantation. First, they transplanted BM from Berk-SS mice into WT [057BI/6 (CD45.2+) or congenic CD45.1+BI/6] mice; mice that developed >95% sickle chimerism were followed for 6-9 months. Berk-SS/WT chimeras also developed hyperangiotensinemia followed by SN. Like in native (untransplanted) sickle mice, losartan or captopril ameliorated glomerular disease, but worsened UCA of hematopoietic SCD chimeras.

[4] = system: erythrocytes and platelets of SCD mice; experiment: ROS analysis (CM-H2DCFDA flow cytometry) of blood cells of drug-treated SCD mice; format: in vivo, mouse
Description: (§1) ROS was measured in WBC, RBC and platelets by mixing 0.5 μl of whole blood with 100 μl of FACS buffer (1×PBS, 0.5% bovine serum albumin), 0.1 μl of biotin anti-mouse Ter-119/erythroid Ly-76 antibody (BD Biosciences, San Jose, Calif., catalog#553672), 1 μl of Streptavidin APC-CyTM^7 (BD Biosciences, catalog#554063), 1 μl of PE anti-mouse CD45 antibody (BD Biosciences, cat#553081). […] All the tubes were incubated at room temperature for 20-30 minutes. The samples were washed with PBS at 200×g for 5 min and 100 μl of CM-H2DCFDA in 1:200 dilution was added to all sample tubes and the CM-H2DCFDA compensation tube while 100 μl of PBS was added to the rest of three compensation samples. The tubes were incubated for 30 minutes at 37° C. All the tubes were washed with 500 μl of PBS and centrifuged at 200×g for 5 min. After removing the supernatant the pellet was re-suspended in 200 μl of ice-cold PBS. Samples were stored on ice until analyzed on a BD FACSCantoTM II flow cytometer (BD Biosciences, San Jose, Calif.) by gating on the WBC, RBC and platelets. Mice were given the following drug treatments: a) Captopril (West-Ward Pharmaceutical, West Eatontown, N.J., NDC number #0143-1173-01) 0.15 mg/ml in drinking water. b) Losartan (Teva Pharmaceuticals USA Inc, North Wales, Pa., -NDC number#00937366-98) 0.3-0.6 mg/ml in drinking water. c) C21 (Vicore Pharma AB, […], Sweden; Batch/Lot number # A11202910) 10 mg/kg/day in drinking water. Losartan and captopril water bottles were changed twice a week with fresh drugs and C21 was changed daily.

[5] = system: RBC and platelets of Berk-SS/WT hematopoietic chimeras; experiment: ROS analysis (CM-H2DCFDA flow cytometry) of blood cells of drug-treated Berk-SS chimeras; format: in vivo, mouse
Description: as §1

[6] = system: Angiotensin-II; experiment: Plasma and urine Angiotensin-II level (EIA) in drug-treated sickle mice; format: in vivo, mouse; settings: compared to untreated Berk-SS controls
Description: Urine and plasma Angiotensin-II level was measured by using the Angiotensin II EIA kit (Cayman Chemical Company, Ann Arbor, Mich., catalog# A05880) following the manufacturer's instructions.
Mice were given the following drug treatments: a) Captopril (West-Ward Pharmaceutical, West Eatontown, N.J., NDC number #0143-1173-01) 0.15 mg/ml in drinking water. b) Losartan (Teva Pharmaceuticals USA Inc, North Wales, Pa., -NDC number#00937366-98) 0.3-0.6 mg/ml in drinking water. c) C21 (Vicore Pharma AB, Haraldsgatan 5, S-413 14 Goteborg, Sweden; Batch/Lot number # A11202910) 10 mg/kg/day in drinking water. Losartan and captopril water bottles were changed twice a week with fresh drugs and C21 was changed daily.

SMILES | urine concentrating ability (UCA) ([1]; sickle (SCD) mice, drug in drinking water) | LV fibrosis [2] | mortality ([1]; Berk-SS mice on drug from 4 weeks of age, from severe hyposthenuria and dehydration) | albuminuria [3] | glomerular disease [3] | UCA (urine osmolality) [3] | erythrocyte ROS [4] | platelet ROS [4] | RBC (erythrocyte) ROS [5] | platelet ROS [5] | plasma AngII levels [6] | urine AngII levels [6]
CCCCOC(=O)NS(=O)(=O)c1sc(CC(C)C)cc1-c1ccc(Cn2ccnc2)cc1 [Compound C21, N-butyloxycarbonyl-3-(4-imidazol-1-ylmethylphenyl)-5-iso-butylthiophene-2-sulfonamide] | improve | ameliorates | – | – | – | – | – | – | – | – | – | –
C[C@H](CS)C(=O)N1CCC[C@H]1C(=O)O [captopril] | – | – | high mortality | did not develop albuminuria | ameliorated | worsened | significantly lowered; also recorded: specifically lowered | unaffected | significantly lowered | not platelets; also recorded: unchanged | lower; also recorded: reduced | lower; also recorded: reduced
CCCCc1nc(Cl)c(CO)n1Cc1ccc(-c2ccccc2-c2nn[nH]n2)cc1 [losartan] | – | – | – | did not develop albuminuria | ameliorated | worsened | significantly lowered; also recorded: specifically lowered | unaffected | significantly lowered | not platelets; also recorded: unchanged | lower; also recorded: reduced | lower; also recorded: reduced
